The values that follow come from ChEMBL document CHEMBL5550157, “Synthesis and biological evaluation of orally active anti-Trypanosoma agents” (Bioorg Med Chem, 2024).

pIC50: −log10 of the molar value. Bounds are passed on as bounds.

The nature of series [1]: Cytotoxicity against HEK293 cells assessed as reduction in cell viability after 48 hrs by MTT assay. The series is classed as toxicity, cell-based. The note with it: human. For orientation: Tetrazolium dyes change colour on reduction, which living cells bring about.
Series [2] has as its system Trypanosoma brucei. The series is described as follows: Antitrypanosomal activity against bloodstream Trypanosoma brucei Lister 427 assessed as reduction in parasite viability incubated for 48 hrs by MTS assay. The series is classed as functional, organism-based. Conditions: Lister 427, 48 h.
A short description of series [3]: Cytotoxicity against mouse RAW264.7 cells assessed as reduction in cell viability after 48 hrs by MTT assay. Format: toxicity, cell-based.
The nature of series [4]: Selectivity index, ratio of IC50 for HEK293 cells to IC50 for antitrypanosomal activity against bloodstream Trypanosoma brucei Lister 427. Conditions: human, read-out: Ratio IC50. Format: toxicity.
Series [5] in a line: Selectivity index, ratio of IC50 for mouse RAW264.7 cells to IC50 for antitrypanosomal activity against bloodstream Trypanosoma brucei Lister 427. The note with it: read-out: Ratio IC50. The series is classed as toxicity.
Series [6] relates to Trypanosoma brucei. The series is described as follows: Antitrypanosomal activity against Trypanosoma brucei infected in CD1 mouse assessed as reduction in parasite number at 50 mg/kg/day, po administered for 3 days and measured on day 5 by hemocytometer analysis (reference value: 40 10^6/ml. Format: functional. The note with it: time 5 day.
The nature of series [7]: Acute toxicity in CD1 mouse assessed as change in body weight at 50 mg/kg, po. The series is classed as organism-based. Conditions: in vivo.

Broadly, the IC50 is the concentration that gives 50% inhibition. The term pIC50 denotes the negative decadic logarithm of the IC50, by convention in mol/L.

With `COc1cc(NC(=O)c2ccc([N+](=O)[O-])cc2)ccc1S(N)(=O)=O`, the 50% inhibitory concentration (IC50) at 48 h was > 100 µM in series [1] and 578 µM in series [3]. Further, in series [2], the pIC50 was 5.48. Further, the results for the selectivity ratio in series [4] and in series [5] were > 30.4 and 176, respectively.
For `COc1cc(NC(=O)c2ccc3c(c2)OCO3)ccc1S(N)(=O)=O` the same measures were 8.8 µM, 48.1 µM, 4.96, 0.81 and 4.41.
For `CCc1ccc(C(=O)Nc2ccc(S(N)(=O)=O)c(OC)c2)cc1` the same measures were 5.69 µM, 23.9 µM, 4.43, 0.15 and 0.64.
Consider `COc1cc(NC(=O)c2ccc(C(F)(F)F)cc2C(F)(F)F)ccc1S(N)(=O)=O`, for which the results for the IC50 at 48 h in series [1] and in series [3] were > 100 µM and 59.1 µM, respectively. Also, the pIC50 in series [2] is 4.09. In addition, the selectivity ratio in series [4] is > 1.22; in series [5], 0.73.
In the same order, the values of `COc1cc(NC(=O)c2ccco2)ccc1S(N)(=O)=O` are > 100 µM, > 100 µM, 5.01, > 10.2 and > 10.2.
For `COc1cc(NC(=O)c2ccc(N(C)C)cc2)ccc1S(N)(=O)=O`, the IC50 at 48 h in series [1] and in series [3] was > 100 µM in each case. In addition, in series [2], the pIC50 was < 4.00.
On to `COc1cc(NC(=O)c2cc(Cl)cc(Cl)c2)ccc1S(N)(=O)=O`, for which the IC50 at 48 h in series [1] came to 98 µM; in series [3], 81 µM. For the same compound, the pIC50 in series [2] was < 4.00. In addition, the selectivity ratio in series [4] is < 0.98; in series [5] it was < 0.81.
As for `COc1cc(NC(=O)c2cccc(C)c2)ccc1S(N)(=O)=O`, the IC50 at 48 h in series [1] and in series [3] was > 100 µM each time. Also, the pIC50 in series [2] was 4.51. Moreover, the selectivity ratio in series [4] and in series [5] was > 3.22 each time.
For `COc1cc(NC(=O)c2cc(C(F)(F)F)cc(C(F)(F)F)c2)ccc1S(N)(=O)=O`, the IC50 at 48 h in series [1] was 74.3 µM; in series [3], 46.3 µM. The pIC50 in series [2] was 4.62. In addition, the selectivity ratio in series [4] was 3.11; in series [5], 1.94.
As for `CCOc1ccc(C(=O)Nc2ccc(S(N)(=O)=O)c(OC)c2)cc1`, the IC50 at 48 h in series [1] and in series [3] was > 100 µM in each case. Further, the pIC50 in series [2] was 5.57. Besides, the selectivity ratio in series [4] and in series [5] was > 37.3 throughout.
Regarding `COc1cc(NC(=O)c2cccc(C(F)(F)F)c2)ccc1S(N)(=O)=O`, the IC50 at 48 h in series [1] is > 100 µM; in series [3] it was 76.7 µM. Besides, in series [2], the pIC50 is 4.44. Moreover, the selectivity ratio in series [4] was > 2.78; in series [5], 2.13.
On to `COc1cc(NC(=O)c2cccc(I)c2)ccc1S(N)(=O)=O`, for which the IC50 at 48 h in series [1] is 48.9 µM; in series [3], > 100 µM. In addition, the pIC50 in series [2] was 4.71. Further, the selectivity ratio in series [4] was 2.53; in series [5], > 5.16.
For `COc1cccc(C(=O)Nc2ccc(S(N)(=O)=O)c(OC)c2)c1` the same measures were > 100 µM, 113 µM, 5.52, > 33.5 and 38.
Regarding `COc1cc(NC(=O)c2ccc(OC(F)(F)F)cc2)ccc1S(N)(=O)=O`, the IC50 at 48 h came to 35.8 µM in series [1] and 33.8 µM in series [3]. Further, in series [2], the pIC50 was 4.44. For the same compound, the selectivity ratio in series [4] turned out to be 0.99; in series [5], 0.93.
For `COc1cc(NC(=O)c2ccc(Cl)c([N+](=O)[O-])c2)ccc1S(N)(=O)=O` the same measures were 15.7 µM, 72.7 µM, 4.82, 1.03 and 4.77.
For `COc1cc(NC(=O)c2ccc(Cl)cc2)ccc1S(N)(=O)=O` the same measures were > 100 µM, 43.9 µM, 4.33, > 2.14 and 0.94.
In the same order, the values of `COc1cc(NC(=O)c2cc(OC)c(OC)c(OC)c2)ccc1S(N)(=O)=O` are 32.9 µM, 34.6 µM, 4.04, 0.36 and 0.38.
With `COc1cc(NC(=O)c2cccc(Br)c2)ccc1S(N)(=O)=O`, the IC50 at 48 h in series [1] amounted to 48.6 µM; in series [3], 20.9 µM. Also, the pIC50 in series [2] was 4.88. The selectivity ratio is 3.66 in series [4] and 1.57 in series [5].
For the compound `COc1cc(NC(=O)c2ccc(C)c([N+](=O)[O-])c2)ccc1S(N)(=O)=O`, the 50% inhibitory concentration (IC50) at 48 h in series [1] was > 100 µM; in series [3], 53.1 µM. Moreover, the pIC50 in series [2] was 5.11. The selectivity ratio in series [4] was > 33.3.
In the case of `COc1cc(NC(=O)c2cccc(C#N)c2)ccc1S(N)(=O)=O`, the figures for the IC50 at 48 h in series [1] and in series [3] were > 100 µM and 35 µM, respectively. Besides, the pIC50 in series [2] is 4.68. For the same compound, the selectivity ratio in series [4] was > 4; in series [5] it was 1.68.
On to `COc1cc(NC(=O)c2ccccn2)ccc1S(N)(=O)=O`, for which the IC50 at 48 h in series [1] and in series [3] was > 100 µM in each case. Moreover, the pIC50 in series [2] was < 4.00.
`COc1cc(NC(=O)c2ccc(SC)cc2)ccc1S(N)(=O)=O`: the IC50 at 48 h in series [1] is > 100 µM; in series [3], 19.6 µM. The pIC50 in series [2] was < 4.00. Further, the selectivity ratio in series [5] is < 0.2.
On to `COc1cc(NC(=O)c2ccccc2[N+](=O)[O-])ccc1S(N)(=O)=O`, for which the IC50 at 48 h in series [1] and in series [3] was > 100 µM in each case. For the same compound, the pIC50 in series [2] was < 4.00.
Turning to `COc1cc(NC(=O)c2ccc(C#N)cc2)ccc1S(N)(=O)=O`, the IC50 at 48 h in series [1] and in series [3] was > 100 µM in each case. The pIC50 in series [2] is 5.37. Moreover, the selectivity ratio in series [4] and in series [5] was > 26.5 throughout.
Consider `COc1cc(NC(=O)c2ccc(C)cc2)ccc1S(N)(=O)=O`, for which the IC50 at 48 h in series [1] is 17.2 µM; in series [3], 53.2 µM. For the same compound, the pIC50 in series [2] is 4.15. For the same compound, the figures for the selectivity ratio in series [4] and in series [5] were 0.24 and 0.76, respectively.
In the same order, the values of `COc1cc(NC(=O)c2ccc(Br)cc2)ccc1S(N)(=O)=O` are 86.8 µM, 48.3 µM, 5.49, 21.7 and 12.1.
In the same order, the values of `COc1cc(NC(=O)COCC(=O)Nc2ccc(S(N)(=O)=O)c(OC)c2)ccc1S(N)(=O)=O` are 98 µM, 81 µM, 4.07, 1.15 and 0.95.
For the compound `COc1cc(NC(=O)c2cccc(Cl)c2)ccc1S(N)(=O)=O`, the figures for the IC50 at 48 h in series [1] and in series [3] were > 100 µM and 91.5 µM, respectively. Moreover, the pIC50 in series [2] is 5.56. In addition, the values for the selectivity ratio in series [4] and in series [5] were > 36.6 and 33.5, respectively.
With `COc1cc(NC(=O)c2ccc3ccccc3c2)ccc1S(N)(=O)=O`, the results for the Activity in series [6] and in series [7] were 10 10^6/ml and “Non-Toxic”, respectively. Also, the figures for the IC50 at 48 h in series [1] and in series [3] were 18 µM and 18.1 µM, respectively. For the same compound, the pIC50 in series [2] was 6.00. Further, the values for the selectivity ratio in series [4] and in series [5] were 17.9 and 18.1, respectively.
Regarding `COc1cc(NC(=O)c2ccc(Cl)c(Cl)c2)ccc1S(N)(=O)=O`, the IC50 at 48 h in series [1] was determined as 22.4 µM; in series [3] it was 23.8 µM. In series [2], the pIC50 is 4.41. The selectivity ratio in series [4] is 0.58; in series [5], 0.62.
